Measurements: the supplement of paper PMC4858399
Counter-ions that a name gives are not always drawn.

Assays:
[1] = system: Caenorhabditis elegans N2; assay: lowest effective concentration for larval growth inhibition (size below effect threshold); higher = less potent; details: exposure time 48 h
Procedure, shortened: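 L1 larvae of C. elegans N2 (50 per 96-well) were grown in K-medium with killed bacteria and 1% DMSO, with the chemical at 0.5, 1, 5, 10, 50, 100 or 200 µM, for 48 h at 20°C. Per-worm extinction from the Biosort stood for size and was log-transformed into well means. For each chemical, the lowest effective concentration is the first dose where plate-adjusted mean size falls under the threshold and stays under it at the higher doses, using a threshold of 5.665.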

[2] = system: Caenorhabditis elegans N2; assay: mean nematode size ln(EXT) after 48 h, plate-adjusted (DMSO control set to 6) (ln(EXT), control-adjusted); higher = larger nematodes / less growth inhibition; details: exposure time 48 h
Procedure, shortened: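 In K-medium with killed OP50, 1% DMSO and 0.5–200 µM chemical, synchronised N2 L1 larvae of C. elegans (50 per well) grew for 48 h at 20°C. Extinction was read for every worm on the Biosort, with debris removed by a growth model. Natural-log values averaged per well gave mean size, which was corrected per plate by subtracting the vehicle control mean and adding 6.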

Row | SMILES | lowest effective concentration [1] [µM] | mean nematode size ln(EXT) (ln) ([2]; 0.5 µM) | mean nematode size ln(EXT) (ln) ([2]; 1 µM) | mean nematode size ln(EXT) (ln) ([2]; 5 µM) | mean nematode size ln(EXT) (ln) ([2]; 10 µM) | mean nematode size ln(EXT) (ln) ([2]; 50 µM) | mean nematode size ln(EXT) (ln) ([2]; 100 µM) | mean nematode size ln(EXT) (ln) ([2]; 200 µM)
1 | CCCOC(=O)NCCCN(C)C [Propamocarb hydrochloride] | > 200 | 5.84 | 5.93 | 5.9 | 5.93 | 6.01 | 5.91 | 5.89
2 | CCCc1cc(=O)[nH]c(=S)[nH]1 [6-Propyl-2-thiouracil] | > 200 | 5.8 | 5.84 | 5.82 | 5.91 | 5.8 | 5.88 | 5.74
3 | COc1cccc([C@H](O)C2CCN(CCc3ccc(F)cc3)CC2)c1OC [Volinanserin] | > 200 | 5.67 | 5.79 | 5.78 | 5.95 | 5.83 | 5.8 | 5.78
4 | OCCOCCOCCO [Triethylene glycol] | > 200 | 5.84 | 5.84 | 5.95 | 5.98 | 5.88 | 5.87 | 5.84
5 | Cc1cc(-c2ccc(N)c(C)c2)ccc1N [o-Tolidine] | > 200 | 5.82 | 5.91 | 5.9 | 5.97 | 5.85 | 5.84 | 5.86
6 | Oc1ccccc1Cl [2-Chlorophenol] | > 200 | 5.99 | 5.99 | 6.06 | 6.11 | 6.21 | 6.13 | 5.71
7 | O=C1NS(=O)(=O)c2ccccc21.[Na] [Saccharin sodium salt hydrate] | > 200 | 5.88 | 5.93 | 5.96 | 5.9 | 5.89 | 5.9 | 5.79
8 | O=C(O)c1cc(Oc2ccc(C(F)(F)F)cc2Cl)ccc1[N+](=O)[O-] [Acifluorfen] | > 200 | 5.84 | 5.92 | 5.76 | 6.05 | 6.01 | 6.24 | 5.94
9 | CCN(CC)CCO [N,N-Diethylethanolamine] | > 200 | 5.86 | 5.89 | 5.91 | 5.81 | 5.83 | 5.76 | 5.78
10 | CCCCCCCCCC [Decane] | > 200 | 5.95 | 5.8 | 5.91 | 5.8 | 5.87 | 5.83 | 5.75
11 | CCCCOCCOCCO [2-(2-Butoxyethoxy)ethanol] | > 200 | 5.78 | 6 | 6.21 | 5.86 | 5.95 | 5.74 | 5.96
12 | N#Cc1cc(Br)c(O)c(Br)c1 [Bromoxynil] | > 200 | 5.85 | 5.95 | 5.86 | 5.91 | 5.84 | 5.95 | 5.67
13 | NC(N)=O [Urea] | > 200 | 5.83 | 5.73 | 5.79 | 5.7 | 5.77 | 5.86 | 5.74
14 | OC[C@H]1O[C@@](CO)(O[C@H]2O[C@H](CO)[C@@H](O)[C@H](O)[C@H]2O)[C@@H](O)[C@@H]1O [Sucrose] | > 200 | 6.01 | 5.97 | 6.04 | 5.98 | 5.84 | 5.87 | 5.82
15 | CC[C@H](C)C(=O)O[C@H]1C[C@H](O)C=C2C=C[C@H](C)[C@H](CC[C@@H](O)C[C@@H](O)CC(=O)O)[C@H]21 [Pravastatin sodium] | > 200 | 5.99 | 5.97 | 5.93 | 5.92 | 5.91 | 5.79 | 5.81
16 | C=CC(N)=O [Acrylamide] | 200 | 6 | 5.68 | 5.69 | 5.76 | 5.89 | 5.76 | 5.65
17 | OCCOCCO [Diethylene glycol] | > 200 | 5.91 | 5.95 | 5.92 | 5.86 | 5.92 | 5.78 | 5.69
18 | c1ccc(C2CO2)cc1 (stereo not given) [Styrene oxide] | > 200 | 6.05 | 6.04 | 6.03 | 6.01 | 6.03 | 6.03 | 5.89
19 | O=c1[nH]cnc2c1ncn2[C@H]1CC[C@@H](CO)O1 [Didanosine] | > 200 | 5.88 | 5.86 | 5.85 | 5.84 | 5.89 | 5.96 | 5.76
20 | NCCO [Ethanolamine] | > 200 | 5.86 | 5.87 | 5.79 | 5.73 | 5.75 | 5.76 | 5.76
21 | COCc1nnc(-c2ccc[n+]([O-])c2)n1-c1c(Cl)c(Cl)cc2[nH]c(=O)c(=O)[nH]c12 | > 200 | 5.89 | 6.15 | 6.22 | 6.24 | 6.17 | 6.08 | 5.67
22 | CC(C)CCCCCCOC(=O)CCCCC(=O)OCCCCCCC(C)C [Diisononyl adipate] | > 200 | 5.94 | 5.98 | 5.93 | 5.92 | 5.87 | 5.91 | 5.69
23 | CCCCC(CC)COC(=O)CCCCC(=O)OCc1ccccc1 (stereo not given) [Benzyloctyl adipate (BOA)] | > 200 | 5.99 | 5.97 | 6.03 | 6.02 | 5.92 | 5.77 | 5.89
24 | CC(C)c1cccc(C(C)C)c1NC(=O)NS(=O)(=O)c1cc(C(C)(C)O)co1 | > 200 | 5.93 | 5.86 | 5.97 | 5.91 | 6 | 5.8 | 5.79
25 | CN1COCN(Cc2cnc(Cl)s2)/C1=N\[N+](=O)[O-] [Thiamethoxam] | > 200 | 5.81 | 5.7 | 5.73 | 5.88 | 5.8 | 5.88 | 5.91
26 | CCC(C)(NC(=O)c1cc(Cl)c(C)c(Cl)c1)C(=O)CCl (stereo not given) [Zoxamide] | > 200 | 5.75 | 5.81 | 5.67 | 5.64 | 5.48 | 4.67 | 5.7
27 | COc1cc2c(c(OC)c1OC)-c1ccc(OC)c(=O)cc1[C@@H](NC(C)=O)CC2 [Colchicine] | > 200 | 5.82 | 5.93 | 5.87 | 5.95 | 5.92 | 5.89 | 5.7
28 | CC(CO)OC(C)CO.CC(O)COCC(C)O (stereo not given) [Dipropylene glycol] | > 200 | 5.74 | 5.73 | 5.79 | 5.87 | 5.74 | 5.66 | 5.87

Row | SMILES | lowest effective concentration [1] [µM] | mean nematode size ln(EXT) (ln) ([2]; 0.5 µM) | mean nematode size ln(EXT) (ln) ([2]; 1 µM) | mean nematode size ln(EXT) (ln) ([2]; 5 µM) | mean nematode size ln(EXT) (ln) ([2]; 10 µM) | mean nematode size ln(EXT) (ln) ([2]; 50 µM) | mean nematode size ln(EXT) (ln) ([2]; 100 µM) | mean nematode size ln(EXT) (ln) ([2]; 200 µM)
29 | CC(C)(C)OOC(=O)c1ccccc1 [tert-Butyl perbenzoate] | > 200 | 6.05 | 6.11 | 6.1 | 6.03 | 6 | 6.09 | 5.87
30 | COc1cc(OC)nc(Sc2cccc(Cl)c2C(=O)O)n1 [Pyrithiobac-sodium] | > 200 | 5.98 | 6 | 6.11 | 6.18 | 6.06 | 6.1 | 5.69
31 | C=CC(=C)CCC=C(C)C [Myrcene] | > 200 | 5.79 | 5.75 | 5.76 | 5.75 | 5.73 | 5.71 | 5.71
32 | COc1cc(-c2nc(NC(=O)c3cc4cc(C)cc(C)c4n3CC(=O)O)sc2CCC2CCCCC2)c(OC)cc1Cl | > 200 | 5.89 | 5.89 | 5.88 | 5.87 | 5.92 | 5.83 | 5.69
33 | OCC1CO1 (stereo not given) [Glycidol] | > 200 | 5.87 | 5.79 | 5.81 | 5.79 | 5.78 | 5.49 | 5.83
34 | O=C(O)c1ccccc1 [Benzoic acid] | > 200 | 5.63 | 5.77 | 5.73 | 5.77 | 5.72 | 5.73 | 6.04
35 | Nc1cnn(-c2ccccc2)c(=O)c1Cl [Chloridazon] | > 200 | 5.51 | 5.47 | 5.3 | 6.01 | 5.44 | 5.44 | 5.89
36 | CN(C)C(=O)NC1(c2ccccc2)CCN(CCCC2(c3ccc(Cl)c(Cl)c3)CCCN(C(=O)c3ccccc3)C2)CC1 (stereo in doubt) | 50 | 5.96 | 5.67 | 5.69 | 5.74 | 5.62 | 5.35 | 5.63
37 | Oc1ccccc1O [Catechol] | > 200 | 5.94 | 5.82 | 5.86 | 5.84 | 5.9 | 5.95 | 5.72
38 | Cc1ccc(C(C)C)cc1 [p-Cymene] | > 200 | 5.73 | 5.99 | 6.14 | 6.05 | 6.08 | 6.06 | 5.92
39 | Cc1ncc([C@@H](CCCCCCc2ccc3c(n2)NCCC3)CC(=O)O)cn1 | > 200 | 5.81 | 5.79 | 5.84 | 5.84 | 5.8 | 5.87 | 5.86
40 | CC1=CC(=O)CC(C)(C)C1 [Isophorone] | > 200 | 5.84 | 5.72 | 5.76 | 5.71 | 5.75 | 5.94 | 5.79
41 | O=P(OCCCl)(OCCCl)OCCCl [Tris(2-chloroethyl) phosphate] | > 200 | 5.87 | 5.82 | 5.89 | 5.86 | 5.86 | 5.87 | 5.77
42 | OCC(CO)(CBr)CBr [2,2-Bis(bromomethyl)-1,3-propanediol] | 200 | 6.41 | 5.91 | 5.99 | 5.63 | 5.67 | 5.93 | 5.64
43 | Oc1ccc2ccccc2c1N=Nc1ccccc1 [Sudan I] | > 200 | 5.91 | 5.88 | 5.87 | 5.83 | 5.7 | 5.77 | 5.68
44 | N#CN [Cyanamide] | > 200 | 5.91 | 5.96 | 6.01 | 6 | 5.96 | 6.01 | 5.92
45 | CC(=O)C(C)=CC1C(C)=CCCC1(C)C (stereo not given) | > 200 | 5.84 | 5.8 | 5.9 | 5.86 | 5.84 | 5.93 | 5.79
46 | CC(=O)Oc1ccccc1C(=O)O [Aspirin] | > 200 | 5.74 | 5.85 | 5.81 | 6.1 | 5.89 | 5.89 | 5.71
47 | CN(C)C(=O)Cl [Dimethylcarbamoyl chloride] | > 200 | 5.77 | 5.81 | 5.82 | 5.71 | 5.84 | 5.9 | 5.73
48 | CCCCCCCCO [1-Octanol] | > 200 | 6.08 | 5.99 | 6.03 | 6.07 | 5.95 | 5.95 | 5.81
49 | CCOCCOC(C)=O [2-Ethoxyethyl acetate] | > 200 | 6.11 | 6.11 | 6.07 | 6.08 | 6.07 | 6.04 | 6.57
50 | Cn1cnc2c1c(=O)[nH]c(=O)n2C [Theobromine] | > 200 | 5.83 | 5.87 | 5.98 | 6.03 | 5.87 | 5.86 | 5.83
51 | Cc1cn([C@H]2C=C[C@@H](CO)O2)c(=O)[nH]c1=O [Stavudine] | > 200 | 5.47 | 5.53 | 5.6 | 5.67 | 5.69 | 5.7 | 5.93
52 | C=CCc1ccc(OC)c(OC)c1 [Methyleugenol] | > 200 | 6 | 5.97 | 6.02 | 5.98 | 5.99 | 5.99 | 5.7
53 | Nc1ccc([N+](=O)[O-])cc1 [4-Nitroaniline] | > 200 | 5.76 | 5.77 | 5.73 | 5.64 | 5.68 | 5.69 | 5.72
54 | CC(O)CO (stereo not given) [Propylene glycol] | > 200 | 6.09 | 5.99 | 6.05 | 6.02 | 5.91 | 5.9 | 5.71
55 | C[N+](C)(C)CC1CO1 (stereo not given) [Oxiranemethanaminium, N,N,N-trimethyl-, chloride] | 200 | 5.78 | 5.84 | 5.81 | 5.54 | 5.83 | 5.84 | 5.66
